From article PMC10216478, “Development of a Non-Peptide Angiotensin II Type 1 Receptor Ligand by Structural Modification of Olmesartan as a Biased Agonist” (Biomedicines, 2023)
Changes are numbered by the printed parent chain.

Columns and labels:
Format in all cases: cell-based
AT1 wild-type receptor [1] = molecular target: T1, AT1 wild-type receptor (Rattus norvegicus, UniProt P25095); assay: IP production assay in COS7 cells expressing AT1 wild-type receptor; conditions: for Effect on IP production: AT1 wild-type receptor, COS7 cells, 1 µM ligands or 0.1 µM Ang II, 30 min, n = 5, vs. (-); for Mode of action with regard to IP production: authors' classification from IP production at AT1 wild-type receptor
T1 construct: expressed in transfected cells; host or cells: COS7
T1 sequence (P25095 1-359): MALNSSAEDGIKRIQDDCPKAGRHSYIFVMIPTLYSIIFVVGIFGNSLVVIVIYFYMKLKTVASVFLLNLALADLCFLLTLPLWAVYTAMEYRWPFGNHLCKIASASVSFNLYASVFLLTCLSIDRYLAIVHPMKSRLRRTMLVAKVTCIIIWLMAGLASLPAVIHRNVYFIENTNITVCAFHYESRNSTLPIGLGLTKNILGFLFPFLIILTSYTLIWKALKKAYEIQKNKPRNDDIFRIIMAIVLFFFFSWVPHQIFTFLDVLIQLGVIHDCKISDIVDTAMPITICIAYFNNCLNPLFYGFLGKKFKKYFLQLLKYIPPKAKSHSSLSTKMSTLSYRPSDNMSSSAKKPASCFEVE
Description: (§1) The synthetic rat AT1 receptor gene, which was cloned in the shuttle expression vector pMT-2, was used for expression and mutagenesis, as described previously. […] In the experiments, cells were grown without a cell-growth supplement. To express the AT1 receptor protein, 10 µg of purified plasmid DNA per 10^7 cells was used in the transfection. Wild-type and mutated AT1 receptors were transiently transfected into cells using Lipofectamine 2000 liposomal reagent (Roche Applied Science, Penzberg, Germany). Cells were plated and grown and were 70–90% confluent at the time of transfection. We incubated plasmid DNA (10 µg)–lipid (10 µL) complexes for 5 min at room temperature and added and incubated the complexes with cells for 24 h. We then analyzed the parameters in transfected cells. […] Transfected cells that had been cultured for 48–72 h were harvested. Cell membranes were prepared using the nitrogen Parr bomb disruption or freeze–thaw methods.
(§2) Ligand (such as agonist or antagonist)-induced IP production through the AT1 receptor in transfected COS7 cells transiently expressing the AT1 receptor was measured to evaluate cell signaling as a second messenger for controlling blood pressure, since the increases in the intracellular Ca^2+ concentration were the result of IP accumulation, which indicated vasoconstriction. As a surrogate model with higher levels of AT1 receptor expression, COS7 cells are suitable for IP measurement because it is easy to detect differences in IP production. Cells were labeled for 24 h with [^3H]-myoinositol at 37 °C in DMEM containing 10% FBS. Next, the cells were washed with buffer 3 times and incubated with a medium containing 10 mM LiCl for 20 min; 0.1 µM Ang II or 1 µM ligands were added and incubation was continued for another 30 min at 37 °C. After incubation, the medium was removed, and total soluble IP was extracted from the cells using the perchloric acid extraction method, as described previously. Cells were plated at a field density of 5 × 10^3 cells/cm^2 in 60 mm dishes and cultured in a fresh growth medium at 37 °C in a DMEM 5% CO2 incubator. […] The culture medium was changed 48 h after transfection and 1.5 mL of 1 μCi/mL of [^3H]-myoinositol was added to each 60-mm dish at 37 °C in DMEM containing 10% FBS. After labeling, the cells were washed with buffer 3 times and incubated with a medium containing 10 mM LiCl for 20 min. The indicated concentration of ligands was added and incubation was continued for an additional 30 min at 37 °C. After incubation, the medium was removed, and total soluble IP was extracted from the cells using the perchloric acid extraction method. Total IP production was expressed as the sum of radioactivity, as described previously.

AT1 wild-type receptor [2] = molecular target: T1, AT1 wild-type receptor; assay: Immunoblotting of ERK 1/2 activation in COS7 cells overexpressing AT1 wild-type receptor; conditions: for ERK1/2 activation: AT1 wild-type receptor, COS7 cells, 1 µM ligands or 0.1 µM Ang II, 10 min, n = 5, vs. (-); for Mode of action in terms of ERK1/2 activation: authors' classification from ERK1/2 activation
Description: as §1
In in vitro studies, ERK 1/2 activation by 1 µM ligands or 0.1 µM Ang II incubated for 10 min was measured using COS7 cells that overexpressed AT1 wild-type and mutant receptors. ERK activity was measured in cells maintained for 18 h in DMEM containing 0.1% serum. At the end of the stimulation, the culture medium was removed by aspiration, the cells were washed with ice-cold phosphate-buffered saline, and the dishes were frozen in liquid nitrogen. The cells were scraped using a scraper after melting, and the scraped cells were transferred to a tube. We homogenized the cells in lysis buffer plus protease inhibitors and determined the protein concentration using the bicinchoninic acid method. […] We fractionated total proteins using sodium dodecyl sulfate polyacrylamide gel electrophoresis; we then transferred the proteins to a Hybond nitrocellulose membrane and blocked the blotted membranes with 10% bovine serum albumin in tris-buffered saline buffer (50 mM Tris–HCl pH 7.6, 150 mM NaCl) for 1 h at room temperature. […] An enhanced chemiluminescent substrate system (Amersham, Buckinghamshire, UK) was used. The signal was independently quantified by digital image analysis (ImageJ, National Institutes of Health, Bethesda, MD, USA).

AT1 Q257A receptor = molecular target: T2, AT1 Q257A receptor (Rattus norvegicus, UniProt P25095, Q257A); assay: IP production assay in COS7 cells expressing AT1-Q257A receptor; conditions: 1 µM ligands or 0.1 µM Ang II, 30 min, n = 5, vs. (-)
T2 construct: expressed in transfected cells; host or cells: COS7
T2 sequence (P25095 1-359 Q257A): T1 sequence (P25095 1-359) with Q257A
Description: as §1, §2

| Compound | Effect on IP production (AT1 wild-type receptor [1]) | Mode of action with regard to IP production (AT1 wild-type receptor [1]) | ERK1/2 activation (AT1 wild-type receptor [2]) | Mode of action in terms of ERK1/2 activation (AT1 wild-type receptor [2]) | Effect on IP production (AT1 Q257A receptor) |
| --- | --- | --- | --- | --- | --- |
| CCCc1nc(C(C)(C)O)c(C(N)=O)n1Cc1ccc(-c2cc(Cc3ccc(O)cc3)ccc2-c2nnn[nH]2)cc1 [R794847] | increased IP production | agonist | activated ERK1/2 | agonists in terms of ERK1/2 activation | none of the compounds (R239470, R781253, and R794847) affected IP production |
| CCCc1nc(C(C)(C)O)c(C(=O)O)n1Cc1ccc(-c2cc(Cc3ccc(O)cc3)ccc2-c2nnn[nH]2)cc1 [R781253] | significantly decreased | inverse agonist | activated ERK1/2 | agonists in terms of ERK1/2 activation | none of the compounds (R239470, R781253, and R794847) affected IP production |
| CCCc1nc(C(C)(C)O)c(C(N)=O)n1Cc1ccc(-c2ccccc2-c2nnn[nH]2)cc1 [R239470] | did not change IP production | neutral antagonist | but not R239470, activated ERK1/2 |  | none of the compounds (R239470, R781253, and R794847) affected IP production |
| CCCc1nc(C(C)(C)O)c(C(=O)O)n1Cc1ccc(-c2ccccc2-c2nnn[nH]2)cc1 [Olmesartan, olmesartan] | significant reduction in basal IP production levels | inverse agonism | did not change ERK1/2 activation |  | significant reduction in basal IP production levels |
